# Measured values published in patent publication US6399764B1, “DNA molecule encoding for cellular uptake of mycobacterium tuberculosis and uses thereof” (priority 1997, dated 2002).
# Entries after “also recorded” stand apart in the source; their conditions may differ.
# Tested on: HeLa cells
# Test: Inhibition of rMcep1-coated fluorescent latex microsphere uptake
# Format: cell-based
smiles,measurement,setting,value
"CN(C)c1cccc2c(S(=O)(=O)NCCCCCN)cccc12 [MDC, Monodansylcadaverine]",inhibition of association/uptake of rMcep1-coated fluorescent beads,"MDC 1-100 mm, 3 h preincubation at 37° C., FIG. 5F",partly inhibited the association
same,inhibition of association/uptake of rMcep1-coated fluorescent beads,"MDC 1-100 mm, 3 h preincubation at 37° C., FIG. 5F, listed as Monodansylcadaverine (MDC)",partly inhibited the bead uptake
COC(=O)Nc1nc2ccc(C(=O)c3cccs3)cc2[nH]1 [Nocodazole],inhibition of association/uptake of rMcep1-coated fluorescent beads,"nocodazole up to 5 mg/ml, 1 hr preincubation at 4° C. then 5 hrs at 37° C., FIG. 5E",inhibited the association of the beads in a dose dependent fashion; also recorded: had a similar inhibitory effect at noncytotoxic concentrations
C=C1[C@@H](C)[C@H]2[C@H](Cc3ccccc3)NC(=O)[C@]23[C@H](OC(C)=O)/C=C/[C@@](C)(O)C(=O)[C@@H](C)C/C=C/[C@H]3[C@@H]1O [Cytochalasin D],inhibition of association/uptake of rMcep1-coated fluorescent beads,"cytochalasin D 0.1-5 mg/ml, 1 h preincubation at 37° C., FIG. 5D",blocked the association of the protein-coated beads in a dose-dependent manner
same,inhibition of association/uptake of rMcep1-coated fluorescent beads,"cytochalasin D 0.1-5 mg/ml, 1 h preincubation at 37° C., FIG. 5D, listed as cytochalasin D","blocked uptake of the fluorescent beads, but the inhibition was not complete"
